Results reported in patent publication US8835124B2, “Method for treating cancer with agents that bind phosphorylated CDC27” (The Nemours Foundation, priority 2011, dated 2014).

Experiments:
[1] = system: DAOY medulloblastoma cells; assay: Cell cycle analysis by flow cytometry after release from thymidine/nocodazole mitotic block; format: cell-based, human; details: for cells remained in G2/M: 10 μM curcumin; for G0/G1 / G2/M / S / Sub G0/G1: DAOY released from thymidine/nocodazole block
Description: DNA was stained with 100 μg/ml propidium iodide (PI) in hypotonic citrate buffer with 20 μg/ml ribonuclease A. Stained nuclei were analyzed for DNA-PI fluorescence using an Accuri C6 flow cytometer (Accuri Cytometers Inc., Ann Arbor, Mich.). Resulting DNA distributions for sub G0/G1, G0/G1, S and G2/M phase of the cell cycle were analyzed with CFlow plus software (Accuri Cytometers Inc).
(§1) For analysis of cell cycle profiles after mitotic block, cells were synchronized with 2 mM thymidine for 24 hours. The block was released for 3 hours and cells were arrested in prometaphase with 100 nM nocodazole for 12 hours. For G1/S arrest, cells were synchronized for 18 hours with 2 mM thymidine, released for 9 hours, followed by a second thymidine arrest for 18 hours. The block was then released in the presence of DMSO or curcumin as indicated and the cells were processed as described above.
as §1, with “above. […] The data from these cell cycle studies are the mean±SEM of three independent experiments. […]” for “above.”

[2] = system: Cdc27, cyclin B1, securin, cyclin D1, APC2, p55Cdc20; assay: Immunoblotting of DAOY cells released from mitotic block; format: cell-based, human
Description: Cell lysates were prepared in a buffer containing 20 mM Tris (pH 7.5), 150 mM NaCl, 1 mM EDTA, 1 mM EGTA, 0.1% Triton X-100, 2.5 mM sodium pyrophosphate, 1 mM β-glycerol phosphate, 1 mM sodium vanadate, 1 mM phenylmethylsulfonyl fluoride and 5 μg/ml of antipapain, leupeptin and pepstatin (protease inhibitor cocktail). Protein concentrations were determined by the Dc protein assay (Bio-Rad, Hercules, Calif.). Equal amounts of protein were resolved by SDS-PAGE and transferred to nitrocellulose. The membranes were blocked in 5% non-fat milk in Tris-buffered saline with 0.1% […] (TBST). Primary antibodies diluted in 5% bovine serum albumin/TBST were incubated overnight at 4° C. and HRP-conjugated secondary antibodies in 5% non-fat milk/TBST for 2 hours at room temperature. Protein bands were visualized by Enhanced Chemiluminescence Plus (GE Healthcare, Piscataway, N.J.).

APC/C = biological target: T1, APC/C (Homo sapiens, UniProt P30260); assay: In vitro APC assay (ubiquitin ligase activity on cyclin B); format: biochemical; details: DAOY released from G2/M block with 20 μM or 40 μM curcumin; two hours vs one hour of release
T1 construct: Cell pellets of control and curcumin-treated DAOY cells were snap frozen in liquid nitrogen; endogenous in cells; host or cells: DAOY cell lysate, 30 μg total protein
Description: In vitro APC assays were performed as described (Rajasekaran et al., Molecular Cancer Therapeutics 7(7); 2142-2151 (2008) using an in vitro transcribed and translated N-terminal fragment of cyclin B1 (cyclin B1-N1-102) as substrate, ^35S-methionine labeled cyclin B1-N1-102 was obtained using the TNT quick-coupled Transcription/Translation system (Promega, Madison, Wis.). Cell pellets of control and curcumin-treated DAOY cells were snap frozen in liquid nitrogen. The cell pellets were resuspended in an ice-cold hypotonic buffer (20 mM Hepes pH 7.6, 20 mM NaF, 1.5 mM MgCl2, 1 mM DTT, 5 mM KCl, 20 mM β-glycerophosphate, 250 μM NaVO3, 1 mM PMSF, and EDTA-free protease inhibitors) and incubated for 30 minutes on ice. The lysates were briefly homogenized and cleared by a 1 hour centrifugation at 13,000 rpm in a micro centrifuge. For the assay, 30 μg of total protein were added to reaction buffer containing 20 mM Tris pH 7.5, 20 mM NaCl, 5 mM MgCl2, 5 mM ATP-γ-S, 20 μg/ml MG-132, 0.5 μg UbcH10, 20 μM ubiquitin, 1 μm ubiquitin aldehyde, protease inhibitor, and 2 μl of in vitro translated ^35S-cyclin B1-N1-102 and incubated at 37° C. for 60 minutes. The reactions were stopped by adding sample buffer and proteins were separated by SDS-PAGE on a 4-15% gradient gel. To visualize the bands, the gel was incubated and enhanced with salicylate, dried, and then subjected to autoradiography. […]

- APC activity (APC/C): reduced
Compound: COc1cc(/C=C/C(=O)CC(=O)/C=C/c2ccc(O)c(OC)c2)ccc1O [Curcumin, (E,E)-1,7-bis(4-hydroxy-3-methoxyphenyl)-1,6-heptadiene-3,5-dion]
- cells remained in G2/M ([1]; six hours after release from mitotic block): 47.7%
- cells remained in G2/M ([1]; two hours after release from mitotic block): 91.5%
- cells found in G2/M ([1]; 20 μM curcumin, 10 hours of release from mitotic block): 69.8%
- cells in the sub-G0/G1 fraction ([1]; 20 μM curcumin, after release from mitotic block): a significant amount of cells was in the sub-G0/G1 fraction
- G0/G1 ([1]; 10 μM Curcumin, 0 Hr): 7.38 ± 3.12%
- G2/M ([1]; 10 μM Curcumin, 0 Hr): 70.15 ± 0.75%
- S ([1]; 10 μM Curcumin, 0 Hr): 17.68 ± 4.78%
- Sub G0/G1 ([1]; 10 μM Curcumin, 0 Hr): 4.80 ± 2.40%
- G0/G1 ([1]; 10 μM Curcumin, 2 Hr): 16.87 ± 4.87%
- G2/M ([1]; 10 μM Curcumin, 2 Hr): 64.16 ± 7.74%
- S ([1]; 10 μM Curcumin, 2 Hr): 10.76 ± 0.04%
- Sub G0/G1 ([1]; 10 μM Curcumin, 2 Hr): 8.21 ± 2.91%
- G0/G1 ([1]; 10 μM Curcumin, 4 Hr): 35.54 ± 1.94%
- G2/M ([1]; 10 μM Curcumin, 4 Hr): 46.47 ± 0.17%
- S ([1]; 10 μM Curcumin, 4 Hr): 9.47 ± 2.03%
- Sub G0/G1 ([1]; 10 μM Curcumin, 4 Hr): 8.57 ± 0.13%
- G0/G1 ([1]; 10 μM Curcumin, 6 Hr): 43.93 ± 3.13%
- G2/M ([1]; 10 μM Curcumin, 6 Hr): 33.43 ± 5.27%
- S ([1]; 10 μM Curcumin, 6 Hr): 12.07 ± 0.53%
- Sub G0/G1 ([1]; 10 μM Curcumin, 6 Hr): 10.57 ± 2.67%
- G0/G1 ([1]; 10 μM Curcumin, 8 Hr): 47.60 ± 4.00%
- G2/M ([1]; 10 μM Curcumin, 8 Hr): 26.86 ± 6.24%
- S ([1]; 10 μM Curcumin, 8 Hr): 15.54 ± 0.56%
- Sub G0/G1 ([1]; 10 μM Curcumin, 8 Hr): 9.99 ± 2.79%
- G0/G1 ([1]; 10 μM Curcumin, 10 Hr): 48.68 ± 8.18%
- G2/M ([1]; 10 μM Curcumin, 10 Hr): 22.65 ± 11.35%
- S ([1]; 10 μM Curcumin, 10 Hr): 19.88 ± 0.32%
- Sub G0/G1 ([1]; 10 μM Curcumin, 10 Hr): 8.85 ± 3.45%
- G0/G1 ([1]; 20 μM Curcumin, 0 Hr): 7.38 ± 3.12%
- G2/M ([1]; 20 μM Curcumin, 0 Hr): 70.15 ± 0.75%
- S ([1]; 20 μM Curcumin, 0 Hr): 17.68 ± 4.76%
- Sub G0/G1 ([1]; 20 μM Curcumin, 0 Hr): 4.80 ± 2.40%
- G0/G1 ([1]; 20 μM Curcumin, 2 Hr): 11.51 ± 2.81%
- G2/M ([1]; 20 μM Curcumin, 2 Hr): 67.21 ± 5.39%
- S ([1]; 20 μM Curcumin, 2 Hr): 13.86 ± 0.34%
- Sub G0/G1 ([1]; 20 μM Curcumin, 2 Hr): 7.42 ± 2.92%
- G0/G1 ([1]; 20 μM Curcumin, 4 Hr): 16.77 ± 1.63%
- G2/M ([1]; 20 μM Curcumin, 4 Hr): 65.00 ± 1.30%
- S ([1]; 20 μM Curcumin, 4 Hr): 10.77 ± 1.57%
- Sub G0/G1 ([1]; 20 μM Curcumin, 4 Hr): 7.46 ± 1.36%
- G0/G1 ([1]; 20 μM Curcumin, 6 Hr): 22.09 ± 0.81%
- G2/M ([1]; 20 μM Curcumin, 6 Hr): 52.27 ± 5.63%
- S ([1]; 20 μM Curcumin, 6 Hr): 14.02 ± 2.02%
- Sub G0/G1 ([1]; 20 μM Curcumin, 6 Hr): 11.67 ± 4.37%
- G0/G1 ([1]; 20 μM Curcumin, 8 Hr): 24.20 ± 0.30%
- G2/M ([1]; 20 μM Curcumin, 8 Hr): 51.55 ± 9.55%
- S ([1]; 20 μM Curcumin, 8 Hr): 13.45 ± 3.65%
- Sub G0/G1 ([1]; 20 μM Curcumin, 8 Hr): 10.85 ± 5.55%
- G0/G1 ([1]; 20 μM Curcumin, 10 Hr): 25.15 ± 0.85%
- G2/M ([1]; 20 μM Curcumin, 10 Hr): 48.95 ± 10.95%
- S ([1]; 20 μM Curcumin, 10 Hr): 14.22 ± 4.02%
- Sub G0/G1 ([1]; 20 μM Curcumin, 10 Hr): 11.67 ± 6.07%
- dephosphorylation of Cdc27 over time after release of the mitotic block ([2]; 20 and 40 μM curcumin vs DMSO): not observed
- decreases in the cyclin B1 and securin levels after release of the mitotic block ([2]; 20 and 40 μM curcumin vs control): not found
- levels of APC2, p55Cdc20 or cyclin D1 ([2]; control vs curcumin-treated cells): no significant differences
